Results on 70 compounds are retold here after PMC7822874, “Chemoprotective antimalarials identified through quantitative high-throughput screening of Plasmodium blood and liver stage parasites” (Scientific Reports, 2021).

In general, AC50 refers to the concentration giving half of the maximal activity seen.

This assay has as its system Plasmodium falciparum Dd2 asexual blood stage parasites. The assay can be described thus: microbe, parasite or virus in culture. Also on record: species or system Plasmodium falciparum Dd2 in human erythrocytes; single determination (one 11-point concentration-response curve). The note with it: Plasmodium falciparum, DD2, Erythrocyte, 72 h; read-out: AC50.
As for `Cc1cc(Nc2ccc(Br)cc2)n2nc(C)nc2n1` [MLS000116653-01], the AC50 was 7.5 µM. The figure for `COc1cc(Br)c(C(C)NC(=O)c2cccc(Br)c2)cc1OC` (stereo not shown) [MLS000325399-01] is 2.11 µM; for `COc1ccc(-n2nc(C(=O)NCC(=O)N3CCN(c4ccccc4OC)CC3)c3ccccc3c2=O)cc1OC` [MLS000936245-01] it is 6.68 µM; for `CCc1c(C)c(C#N)c2nc3ccccc3n2c1NCC1CCCO1` (stereo not shown) [MLS000556827-01] it is 2.99 µM. The figure for `CCC(=O)C1=C(c2cccc([N+](=O)[O-])c2)N(C(=O)CC)n2c(nnc2C2CCCCC2)S1` [NCGC00137266-01] is 1.88 µM; for `CN1CCN(Cc2nnc(C(=O)N3CCC[C@@H]3c3ccc(Br)cc3)n2Cc2ccccc2)CC1` [NCGC00415715-01] it is 7.5 µM; for `COc1ccc(NC(=O)c2c(C)oc3ccc(O)c(CN4CCN(Cc5ccccc5)CC4)c23)cc1` [NCGC00115648-01] it is 2.66 µM. The value for `CCc1ccc(-c2nn(CC(=O)NC3CCCCC3)c3c2cnc2ccc(OC)cc23)cc1` [NCGC00130391-01] was 9.44 µM. Regarding `CC(C)[C@@H]1CN([S+](=O)([O-])c2ccc(Cl)cc2Cl)C[C@H]1N(C)C` [NCGC00445159-01], the AC50 amounted to 6.68 µM. The value for `c1ccc(Oc2ccc(Nc3cnc4ccc(N5CCOCC5)nn34)cc2)cc1` [NCGC00412601-01] was 7.69 µM.

As to `COc1cc2nc(NCc3ccc(C)cc3)n3nc(-c4ccccc4)nc3c2cc1OC` [NCGC00112855-01], the AC50 was 0.266 µM.

For the compound `Cc1ccc(C(=O)c2cc(C)sc2NC(=O)CN2CCN(C(=O)c3ccco3)CC2)cc1` [MLS000073677-01], the AC50 stood at 7.5 µM. As to `Cc1cc(C(F)(F)F)nn1CC(=O)NCCc1ncc(C)n1CC1CC1` [NCGC00469801-01], the AC50 was 10.6 µM. The figure for `COc1cc([N+](=O)[O-])ccc1NC(=O)Nc1nc2c(s1)CCCC2` [MLS000581295-01] is 6.68 µM. The value for `O=C1N=C(NC2CCCCC2)C2(CCN(Cc3ccccc3)C2)N1c1cc(F)cc(F)c1` (stereo not shown) [NCGC00374188-01] was 4.22 µM; that for `CCCOc1ccc(Oc2nc(-c3ccncc3)nc3ccccc23)cc1` [MLS000769540-01] was 4.22 µM. Regarding `Cc1nnc(NC(=O)C2c3ccccc3C(=O)N(CC(C)C)C23CCCCC3)s1` (stereo not shown) [NCGC00423223-01], the AC50 is 15 µM. The figure for `CC(C)CNC(=O)C(C)(C)Oc1nn(CC2CC2)c2ccc(CN3CCCC3)cc12` [NCGC00419534-01] is 19.3 µM.

Consider `Cn1cc(C(=O)NCCN2CCN(c3cccc(Cl)c3)CC2)c2c3ccccc3n(C)c2c1=O` [MLS000086993-01], for which the AC50 is 4.73 µM. The figure for `CCCc1nc2ccc(NC(=O)c3cccs3)cc2c(=O)n1Cc1ccc(Cl)cc1` [MLS000569177-01] is 8.41 µM; for `CCOC(=O)c1c(C)oc2nc(C)nc(Nc3ccc(CC)cc3)c12` [NCGC00126813-01] it is 7.5 µM. The figure for `CC(=O)N1CCc2cc(Br)cc(S(=O)(=O)N3CCCCC3)c21` [MLS000936219-01] is 5.96 µM; for `CCOC(=O)N1CCC(NC(=O)c2ccc3c(c2)N(Cc2ccccc2)C(=O)c2ccccc2[S+]3[O-])CC1` (stereo not shown) [NCGC00109348-01] it is 13.3 µM; for `O=C(NCCN1CCCCC1)c1ccc(-c2nnc3ccc(NC(=O)C4CCC4)cn23)cc1` [NCGC00429914-01] it is 13.3 µM. The value for `O=C(N[C@H](c1ccccn1)[C@H]1C[C@H](O)C1)c1cc(=O)n(-c2ccccc2)[nH]1` [NCGC00423856-01] was 9.44 µM. Consider `N#Cc1nn(-c2c(Cl)cc(C(F)(F)F)cc2Cl)c(N)c1[S+]([O-])C(F)(F)F` (stereo not shown) [NCGC00094574-06], for which the AC50 turned out to be 9.44 µM.

In the case of `Cc1ccccc1OCCn1cc(C(=O)c2ccco2)c2ccccc21` [NCGC00101854-01], the AC50 came to 5.31 µM.

As for `CC(C)NC(=O)OC[C@H]1C[C@@H]2CCN1C[C@@H]2c1cc(-c2ccc(F)cc2)nn1C` [NCGC00399718-01], the AC50 is 13.7 µM. As for `Cc1ccccc1NC(=O)c1cc2c(-c3ccccc3)nn(-c3ccccc3)c2s1` [NCGC00102094-01], the AC50 amounted to 11.9 µM. The value for `COC(=O)[C@H](Cc1ccc(OC)cc1)NC(=O)[C@H]1CN(C(=O)c2ccc(N(C)C)cc2)CCN1C(=O)c1cccs1` [NCGC00398661-01] was 0.188 µM. The value for `CS(=O)(=O)c1ccc(C(=O)Nc2ccc(-c3nc4ccccc4[nH]3)cc2)cc1` [MLS001166841-01] was 7.5 µM; that for `Oc1ccccc1CN1CCOC[C@H]1c1nc(-c2ccc(C(F)(F)F)cc2)c[nH]1` [NCGC00394286-01] was 4.85 µM; that for `O=C(c1cccs1)N1CCC(O)(c2ccccc2)[C@H](N2CCCC2)C1` (stereo partly shown) [NCGC00442580-01] was 9.44 µM. The value for `CN1Cc2ccc(Nc3ccccc3)nc2C(C)(C(=O)NCc2ccc3c(c2)OCO3)C1` (stereo not shown) [NCGC00414588-01] was 13.7 µM; that for `CCN1CCN(c2cc(C)c3cc(NC(=O)c4cc(OC)cc(OC)c4)ccc3n2)CC1` [NCGC00103842-01] was 3.35 µM; that for `COc1ccc(OC)c(NC(=O)c2cc(-c3cc(Cl)ccc3O)n[nH]2)c1` [MLS000083936-01] was 4.73 µM.

For `Cc1noc(-c2cccs2)c1C(=O)NC(C)c1cccc2ccccc12` (stereo not shown) [NCGC00358764-02], the AC50 came out at 0.668 µM. The figure for `COc1cc(=O)n2c(c1C(=O)Nc1ccc(N(C)C)cc1)CCCC2` [NCGC00435410-01] is 10.6 µM; for `O=C(Nc1ccc(N2CCOCC2)c(Cl)c1)c1nc[nH]n1` [MLS000072688-01] it is 9.44 µM; for `CN1CCOc2c(C(=O)NCc3cccnc3)cc(-c3cccc4[nH]ccc34)cc21` [NCGC00416962-01] it is 8.63 µM. The figure for `O=C(Nc1ccc(Cl)cc1)Nc1nc(-c2ccccc2O)cs1` [MLS000774885-01] is 6.68 µM. The figure for `CC1=C[C@@H](CNC(C)C)[C@H](C(C)C)C[C@H]1Cc1nnc(-c2ccc(C)cc2)o1` [NCGC00394176-01] is 13.7 µM; for `CC(C)(C)n1nnnc1C(c1cc2cc3c(cc2[nH]c1=O)OCO3)N1CCN(c2ccccc2)CC1` (stereo not shown) [MLS000072810-01] it is 7.5 µM; for `CC(=O)NCCC(=O)Nc1cc(S(=O)(=O)N2CCCCC2)ccc1N1CCCCC1` [MLS002181171-01] it is 7.5 µM. Turning to `CC1(c2ccccc2)N(Cc2ccccc2F)C(=O)OC12CCN(Cc1cccc(O)c1)CC2` (stereo not shown) [NCGC00415649-01], the AC50 was determined as 6.68 µM. The figure for `COCC1CN(Cc2cccc(OC(F)(F)F)c2)CC12CCNCC2` (stereo not shown) [NCGC00461844-01] is 15 µM. The figure for `COc1ccccc1C1CC(c2ccccc2)=NN1C(=O)c1ccccc1` (stereo not shown) [MLS001197331-01] is 2.37 µM; for `CCn1cc(CN2CCCC23CCN(c2cc(C)nc4ccccc24)CC3)c(C)n1` [NCGC00442249-01] it is 4.22 µM. The value for `COC(=O)C1=C(c2ccc(OC(F)(F)F)cc2)C[C@@H]2CC[C@H]1N2C(=O)NCc1cccc2ccccc12` [MLS002302720-01] was 3.35 µM; that for `Cc1cnc(C2CCC2)n1C1CCCN(C(=O)CCCc2ccccc2)C1` (stereo not shown) [NCGC00464236-01] was 15 µM. `O=C(c1ccccc1OCC1CCCN(Cc2ccncc2F)C1)N1CCCCC1` (stereo not shown) [NCGC00427046-01]: the concentration at half-maximal activity (AC50) worked out at 10.6 µM.

Consider `Cc1ccc(NC(=O)c2c(C)oc3ccc(O)c(CN4CCCCCC4)c23)cc1` [NCGC00115683-01], for which the half-maximal activity concentration (AC50) turned out to be 2.11 µM. The figure for `CCC(CC)c1cc([C@H]2CN3CC[C@H]2C[C@@H]3CNC(=O)c2ccccc2)nc(-c2ccncc2)n1` [NCGC00400223-01] is 10.6 µM.

Regarding `COC(=O)C1=C(C)N(c2ccc(OC)cc2)C(C)=C(C(=O)OC)C1c1ccccc1` [MLS000780021-01], the AC50 is 9.44 µM. The figure for `Cc1ccc(-c2nc3n(n2)C(c2ccccc2Cl)C=C(c2ccc(Cl)cc2)N3)cc1` (stereo not shown) [NCGC00105122-01] is 9.44 µM. For `CCN1CCN(Cc2ccc(NC(=O)c3cc(NC(=O)c4cncc(-c5ccc(C#N)cc5)c4)cc(OC)c3)cc2C(F)(F)F)CC1` [MLS000911575-01], the AC50 was found to be 0.596 µM. The value for `CC(C)(C)c1ccc(-c2noc(-c3ncn4c3COC(c3ccc(F)cc3)C4)n2)cc1` (stereo not shown) [NCGC00449976-01] was 15 µM; that for `CC1(c2ccccc2)O[C@@H]2C[C@H]3[C@@H]4CCC5=CC(=O)C=C[C@]5(C)[C@@]4(F)[C@@H](O)C[C@]3(C)[C@]2(C(=O)CO)O1` (stereo partly shown) [MLS000738166-01] was 4.73 µM; that for `COc1ccc2nc(C[C@@H]3C[C@@H](C(C)C)[C@H](CNCc4cccnc4)C=C3C)[nH]c2n1` [NCGC00401578-01] was 19.3 µM. The figure for `Cc1noc(C)c1-c1cc2cc(CN(C)C)oc2c(NCc2cccnc2)n1` [NCGC00417547-01] is 1.22 µM; for `O[C@@H]1C[C@@](CNCC2CCCC2)(COc2ccc(C(F)(F)F)cn2)C[C@@H]1O` [NCGC00393440-01] it is 5.31 µM; for `CC(C)n1cc(CN2CCCC23CCN(c2ccc(C(F)(F)F)cn2)CC3)cn1` [NCGC00442913-01] it is 9.44 µM. The figure for `CN1CCN(c2ccc(NC(=O)c3ccc(-c4cccc([N+](=O)[O-])c4)o3)cc2)CC1` [MLS000663772-01] is 4.73 µM. `COc1ccc(CCn2c(=N)c(C(=O)NCCN3CCOCC3)cc3c(=O)n4cccc(C)c4nc32)cc1OC` [MLS001146185-01]: the AC50 turned out to be 13.3 µM. The value for `Cc1cc(C)c(/C=C/c2onc(C)c2[S+](=O)([O-])N2CCC(C(=O)Nc3ccc(Cl)c(C(F)(F)F)c3)CC2)c(C)c1` [NCGC00132732-01] was 10.6 µM. Regarding `O=C(c1n[nH]c2ccccc12)N1CCCC1c1nc(CCOCC2CCOCC2)no1` (stereo not shown) [NCGC00460318-01], the AC50 is 9.44 µM. The figure for `Cc1cc2c(c3oc(=O)c4ccccc4c13)CN(Cc1ccc(F)cc1)CO2` [NCGC00116338-01] is 2.66 µM; for `COCc1ccc2c(c1)c(OC(C)(C)C(=O)N1CCN(CCO)CC1)nn2Cc1ccccc1` [NCGC00419658-01] it is 9.44 µM. As to `CC1CCCN(Cc2c(O)ccc3c(=O)c(-c4ccc(Cl)cc4)c(C(F)(F)F)oc23)C1` (stereo not shown) [NCGC00100583-01], the AC50 came to 0.841 µM. Turning to `Cc1cccc(CNCc2ccccc2OCC(O)CN2CCSCC2)c1` (stereo not shown) [NCGC00428382-01], the AC50 amounted to 1.5 µM.
